Experimental data: BindingDB's records for doi:10.1021/jm950640q (Sankyo, 1997)

Assay: Inhibiting Platelet activating factor receptor by radioreceptor binding assay using rabbit platelets and [3H]-PAF

| SMILES | IC50 |
| --- | --- |
| C/C1=C\CC[C@@]2(C)O[C@@H]2C(=O)[C@@H]2CC[C@@H](C)[C@](C)(CC1)[C@H]2C=O [(E)-(1R,3S,5R,12S,13R,16S)-5,9,12,13-Tetramethyl-2-oxo-4-oxa-tricyclo[10.3.1.0*3,5*]hexadec-8-ene-16-carbaldehyde] | 120 nM |
| C/C1=C\CC[C@@]2(C)O[C@@H]2C(=O)[C@@H]2CC[C@@H](C)[C@](C)(CC1)[C@H]2COC(=O)Oc1ccccc1 [Carbonic acid phenyl ester (E)-(1R,3S,5R,12S,13R,16S)-5,9,12,13-tetramethyl-2-oxo-4-oxa-tricyclo[10.3.1.0*3,5*]hexadec-8-en-16-ylmethyl ester] | 550 nM |
| CCC(=O)OC[C@H]1[C@H]2CC[C@@H](C)[C@]1(C)CC/C(C)=C/CC[C@@]1(C)O[C@@H]1[C@@H]2O [Propionic acid (E)-(1R,2R,3R,5R,12S,13R,16S)-2-hydroxy-5,9,12,13-tetramethyl-4-oxa-tricyclo[10.3.1.0*3,5*]hexadec-8-en-16-ylmethyl ester] | 340 nM |
| COC(=O)OC[C@H]1[C@H]2CC[C@@H](C)[C@]1(C)CC/C(C)=C/CC[C@@]1(C)O[C@@H]1[C@@H]2O [Carbonic acid (E)-(1R,2R,3R,5R,12S,13R,16S)-2-hydroxy-5,9,12,13-tetramethyl-4-oxa-tricyclo[10.3.1.0*3,5*]hexadec-8-en-16-ylmethyl ester methyl ester] | 130 nM |
| CC(=O)OC[C@H]1[C@H]2CC[C@@H](C)[C@]1(C)CC/C(C)=C/CC[C@@]1(C)O[C@@H]1[C@@H]2O [Acetic acid (E)-(1R,2R,3R,5R,12S,13R,16S)-2-hydroxy-5,9,12,13-tetramethyl-4-oxa-tricyclo[10.3.1.0*3,5*]hexadec-8-en-16-ylmethyl ester] | 80 nM |
| C/C1=C\CC[C@@]2(C)O[C@@H]2[C@H](O)[C@@H]2CC[C@@H](C)[C@](C)(CC1)[C@H]2COC(=O)N(C)C [Dimethyl-carbamic acid (E)-(1R,2R,3R,5R,12S,13R,16S)-2-hydroxy-5,9,12,13-tetramethyl-4-oxa-tricyclo[10.3.1.0*3,5*]hexadec-8-en-16-ylmethyl ester] | 180 nM |

More lines, now with the values ahead:

| IC50 | SMILES |
| --- | --- |
| 180 nM | C/C1=C\CC[C@@]2(C)O[C@@H]2C(=O)[C@@H]2CC[C@@H](C)[C@](C)(CC1)[C@H]2COC(=O)N(C)C [Dimethyl-carbamic acid (E)-(1R,3S,5R,12S,13R,16S)-5,9,12,13-tetramethyl-2-oxo-4-oxa-tricyclo[10.3.1.0*3,5*]hexadec-8-en-16-ylmethyl ester] |
| 26 nM | COC(=O)OC[C@H]1[C@H]2CC[C@@H](C)[C@]1(C)CC/C(C)=C/CC[C@@]1(C)O[C@@H]1C2=O [Carbonic acid methyl ester (E)-(1R,3S,5R,12S,13R,16S)-5,9,12,13-tetramethyl-2-oxo-4-oxa-tricyclo[10.3.1.0*3,5*]hexadec-8-en-16-ylmethyl ester] |
| 410 nM | CC(=O)OC[C@H]1[C@H]2CC[C@@H](C)[C@]1(C)CC/C(C)=C/CC[C@@]1(C)O[C@@H]1C2=O [Acetic acid (E)-(1R,3S,5R,12S,13R,16S)-5,9,12,13-tetramethyl-2-oxo-4-oxa-tricyclo[10.3.1.0*3,5*]hexadec-8-en-16-ylmethyl ester] |
| 1300 nM | C/C1=C\CC[C@@]2(C)O[C@@H]2C(=O)[C@@H]2CC[C@@H](C)[C@](C)(CC1)[C@H]2CO [(E)-(1R,3S,5R,12S,13R,16S)-16-Hydroxymethyl-5,9,12,13-tetramethyl-4-oxa-tricyclo[10.3.1.0*3,5*]hexadec-8-en-2-one] |
| 50 nM | C/C1=C\CC[C@@]2(C)O[C@@H]2C(=O)[C@@H]2CC[C@@H](C)[C@](C)(CC1)[C@H]2COc1ccon1 [(E)-(1R,3S,5R,12S,13R,16S)-16-(Isoxazol-3-yloxymethyl)-5,9,12,13-tetramethyl-4-oxa-tricyclo[10.3.1.0*3,5*]hexadec-8-en-2-one] |
